Data taken from US20140178898A1, “Method for Detecting Fat-Reducing Compounds” (National Central University, priority 2012, published 2014).

Experiments:
Assay type in all cases: cell-based
3T3-L1 adipocytes [1] = experiment: 2-deoxyglucose (2-DOG) uptake assay, IGF-I-stimulated glucose uptake; conditions: for IGF-I-stimulated increases in levels of adipocyte glucose uptake: then 10 nM IGF-I 10 minutes (FIG. 2A)
Procedure: (§1) In the first step (S1), which provides a clone of adipocytes to be cultured on a culture dish, the adipocytes are 3T3-L1 adipocytes (American Type Culture Collection, Manassas, Va.). 3T3-L1 adipocytes are differentiated from 3T3-L1 preadipocytes. To obtain the adipocytes, preadipocytes are seeded at a number of 6×10^4 cells per well on a sterile 12-well plate. After 3 and 5 days of the plating, the medium is changed and replaced with a new medium containing a differentiation agent, respectively. Day 0 of differentiating cells is set at the day when the differentiating agent is added in the beginning. The medium is the Dulbecco's Modified Eagle's Medium (DMEM) containing 10% fetal bovine serum (FBS), 100 U/ml of penicillin, and 100 μg/ml streptomycin. The differentiation agent is a cocktail solution containing a final concentration of 0.5 mM 3-Isobutyl-1-methylxanthine (IBMX), 5 μg/ml insulin, and 1 μM dexamethasone (DEX). After the 2-day incubation of the differentiation agent, the medium is changed to DMEM containing 10% FBS and 5 μg/ml insulin for an additional 4 days, and it is replaced with a new medium every 2 days. Day 6 differentiating cells are grown in DMEM containing 10% FBS for an additional 4 days. The medium is changed every 2 days. A total of 10 days is used for the process of differentiation to obtain the differentiated adipocytes and the cells are used for later experiments.
(§2) The first example of the present invention is to show a use of 2-deoxyglucose uptake assay for detecting the transportation activity of glucose transporter protein in the adipocytes (FIG. 2). This purpose is also to clarify the effect of different concentrations of EGCG on the IGF-I-induced and IGF-II-induced glucose uptake. At the first, the different concentrations of EGCG are added into the adipocytes, such as 1, 2, 5, 10, 20 and 50 μM. The duration of the EGCG pretreatment is defined as a first time and it is 120 minutes, wherein the first time period can range from 30 to 120 minutes, but it is not limited thereto. Then, the exposed time of 10 minutes to 10 nM IGF-I or 10 nM IGF-II is defined as a second time, wherein the second time can be 5 minutes shorter or last for 30 minutes, but it is not limited thereto. […] Then, 500 μl of RadioImmunoPrecipitation Assay (RIPA) buffer is added for fracturing the cells; 450 μl of cell solution is collected to evenly mix with 4 ml of scintillation liquid in a vial for a detection of radioactivity through a β-counter.
(§3) This invention provides a second example for clarifying the time course effects of EGCG on the IGF-stimulated glucose uptake in adipocytes (FIG. 3). […] After the incubation, the radioactivity is measured to indicate the transportation activity of glucose transporter protein in the adipocytes. […]

[2] = test system: glucose transporter 1 (GLUT1); experiment: Western blotting of GLUT1 protein in adipocyte fractions; conditions: EGCG in the presence and absence of IGF-I and IGF-II (FIGS. 5A, 6A)
Procedure: (§4) In the first step (S1), which provides a clone of adipocytes to be cultured on a culture dish, the adipocytes are 3T3-L1 adipocytes (American Type Culture Collection, Manassas, Va.). 3T3-L1 adipocytes are differentiated from 3T3-L1 preadipocytes. To obtain the adipocytes, preadipocytes are seeded at a number of 6×10^4 cells per well on a sterile 12-well plate. After 3 and 5 days of the plating, the medium is changed and replaced with a new medium containing a differentiation agent, respectively. Day 0 of differentiating cells is set at the day when the differentiating agent is added in the beginning. The medium is the Dulbecco's Modified Eagle's Medium (DMEM) containing 10% fetal bovine serum (FBS), 100 U/ml of penicillin, and 100 μg/ml streptomycin. […]
In the fourth step (S4), which collects the adipocytes for a detection of the expression level of at least one specific protein to be a reference value (i.e. an indicator) for reducing fat or for decreasing the glucose transport by the test compound, the specific proteins are glucose transporter 1 (GLUT1) and glucose transporter 4 (GLUT4) proteins (FIGS. 5 and 6). Levels of GLUT1 and GLUT4 protein expression in the total lysate, plasma membrane, and low-density microsome are analyzed by Western blotting. […]

[3] = test system: glucose transporter 4 (GLUT4); experiment: Western blotting of GLUT4 protein in adipocyte fractions (translocation); conditions: for GLUT4 protein levels in the plasma membrane of adipocytes: IGF at 10 nM (FIGS. 5B, 6B); for GLUT4 expression levels in the low-density microsome: IGF at 10 nM (FIGS. 5C, 6C)
Procedure: as §1
In the fourth step (S4), which collects the adipocytes for a detection of the expression level of at least one specific protein to be a reference value (i.e. an indicator) for reducing fat or for decreasing the glucose transport by the test compound, the specific proteins are glucose transporter 1 (GLUT1) and glucose transporter 4 (GLUT4) proteins (FIGS. 5 and 6). Levels of GLUT1 and GLUT4 protein expression in the total lysate, plasma membrane, and low-density microsome are analyzed by Western blotting. FIGS. 5A, 5B and 5C are presented when the culture medium is added with or without IGF-I; whereas, in FIGS. 6A, 6B and 6C, IGF-II is added to the culture medium.

3T3-L1 adipocytes [4] = experiment: 2-deoxyglucose (2-DOG) uptake assay, IGF-II-stimulated glucose uptake
Procedure: as §4, with “beginning.” for “beginning. The medium is the Dulbecco's Modified Eagle's Medium (DMEM) containing 10% fetal bovine serum (FBS), 100 U/ml of penicillin, and 100 μg/ml streptomycin.”
The first example of the present invention is to show a use of 2-deoxyglucose uptake assay for detecting the transportation activity of glucose transporter protein in the adipocytes (FIG. 2). […] Then, 500 μl of RadioImmunoPrecipitation Assay (RIPA) buffer is added for fracturing the cells; 450 μl of cell solution is collected to evenly mix with 4 ml of scintillation liquid in a vial for a detection of radioactivity through a β-counter.
as §3

3T3-L1 adipocytes [5] = experiment: 2-deoxyglucose (2-DOG) uptake assay, EGCG alone
Procedure: as §1, §2
This invention provides a second example for clarifying the time course effects of EGCG on the IGF-stimulated glucose uptake in adipocytes (FIG. 3). […] After the incubation, the radioactivity is measured to indicate the transportation activity of glucose transporter protein in the adipocytes.

## (−)-epigallocatechin gallate [EGCG]
3T3-L1 adipocytes [1]; 20 μM EGCG pretreatment for 0.5 hours, suppressive effect lasts for 4 hours, 10 nM IGF-I
  IGF-I-increased levels of adipocyte glucose uptake: inhibits
3T3-L1 adipocytes [1]; 20 μM EGCG, 2-hour treatment, 10 nM IGF-I
  IGF-I-increased level of adipocyte glucose uptake: decline to the corresponding level of glucose uptake to the control
3T3-L1 adipocytes [1]; 2-hour pretreatment with 1, 2, or 5 μM EGCG
  IGF-I-stimulated increases in levels of adipocyte glucose uptake: not
3T3-L1 adipocytes [1]; 2-hour pretreatment with 10, 20, and 50 μM EGCG
  IGF-I-stimulated increases in levels of adipocyte glucose uptake: suppresses
[2]
  levels of GLUT1 protein in the total lysate of the adipocytes: not altered
[3]; EGCG in the presence and absence of IGF-I and IGF-II (FIGS. 5A, 6A)
  levels of GLUT4 protein in the total lysate of the adipocytes: not altered
[3]; EGCG in the presence of IGF-I (FIG. 5B)
  IGF-increased levels of GLUT-4 protein in the plasma membrane: inhibits
[3]; EGCG in the presence of IGF-I (FIG. 5C)
  IGF-decreased levels of GLUT-4 protein in the low-density microsome: blocked
[3]; EGCG in the presence of IGF-II (FIG. 6B)
  IGF-increased levels of GLUT-4 protein in the plasma membrane: inhibits
[3]; EGCG in the presence of IGF-II (FIG. 6C)
  IGF-decreased levels of GLUT-4 protein in the low-density microsome: blocked
[3]; FIGS. 5B, 5C, 6B and 6C
  translocation of GLUT4 from the cytosol to plasma membrane of the adipocytes induced by IGF treatment: inhibited
[3]; pretreatment with EGCG alone
  GLUT-4 protein levels in the low-density microsome: does not change
  GLUT-4 protein levels in the plasma membrane: does not change
3T3-L1 adipocytes [4]; 0.5, 1, 2, and 4 hours after 20 μM EGCG pretreatment, 10 nM IGF-II
  increase in the level of adipocyte glucose uptake induced by IGF-II: significantly reduced
3T3-L1 adipocytes [4]; EGCG at 10, 20, and 50 μM, 2-hour pretreatment, 10 nM IGF-II (FIG. 2B)
  IGF-II-increased levels of glucose uptake in adipocytes: suppress
3T3-L1 adipocytes [5]; 20 μM EGCG alone, 0.5, 1, or 2 hours (FIG. 3A)
  level of adipocyte glucose uptake: not
3T3-L1 adipocytes [5]; 20 μM EGCG alone, 4 hours (FIG. 3A)
  level of adipocyte glucose uptake: significantly altered
3T3-L1 adipocytes [5]; EGCG alone at 50 μM, 2 hours (FIG. 2A)
  adipocyte glucose uptake: significantly decreased
3T3-L1 adipocytes [5]; EGCG alone at 1, 2, 5, 10, and 20 μM, 2 hours of treatment (FIG. 2A)
  glucose uptake in the adipocytes: does not alter

## IGF-I: insulin-like growth factor I, added to adipocytes at 10 nM
[3]
  GLUT4 protein levels in the plasma membrane of adipocytes: significantly increase
  GLUT4 expression levels in the low-density microsome: decrease

## IGF-II: insulin-like growth factor II, added to adipocytes at 10 nM
[3]
  GLUT4 protein levels in the plasma membrane of adipocytes: significantly increase
  GLUT4 expression levels in the low-density microsome: decrease
